Measured values as given in patent US6737383B1, “Herbicidal oxadiazolidines” (priority 1999, dated 2004).

Columns and labels:
bedstraw = test: Test B pre/postemergence bedstraw; type: in vivo, Galium aparine
Method in brief: (§1)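 Herbicidal effect was estimated by eye on a ten-point control scale after plants spent twelve to sixteen days in a greenhouse following soil or foliar treatment. Foliar sprays targeted plants at one to four leaves; all doses were formulated in a non-phytotoxic solvent with surfactant.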

blackgrass = test: Test B pre/postemergence blackgrass; type: in vivo, Alopecurus myosuroides
Method in brief: as §1

surinam grass = test: Test B pre/postemergence surinam grass; type: in vivo, Brachiaria decumbens
Method in brief: as §1

cocklebur = test: Test B pre/postemergence cocklebur; type: in vivo, Xanthium strumarium
Method in brief: as §1

crabgrass = test: Test B pre/postemergence crabgrass; type: in vivo, Digitaria sanguinalis
Method in brief: as §1

giant foxtail = test: Test B pre/postemergence giant foxtail; type: in vivo, Setaria faberii
Method in brief: as §1

morningglory = test: Test B pre/postemergence morningglory; type: in vivo, Ipomoea hederacea
Method in brief: as §1

pigweed = test: Test B pre/postemergence pigweed; type: in vivo, Amaranthus retroflexus
Method in brief: as §1

sugar beet = test: Test B pre/postemergence sugar beet; type: in vivo, Beta vulgaris
Method in brief: as §1

velvetleaf = test: Test B pre/postemergence velvetleaf; type: in vivo, Abutilon theophrasti
Method in brief: as §1

wheat = test: Test B pre/postemergence wheat; type: in vivo, Triticum aestivum
Method in brief: as §1

wild oat = test: Test B pre/postemergence wild oat; type: in vivo, Avena fatua
Method in brief: as §1

purple nutsedge = test: Test B pre/postemergence purple nutsedge; type: in vivo, Cyperus rotundus
Method in brief: as §1

rice = test: Test B flood test rice; type: in vivo, Oryza sativa
Method in brief: (§2)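 Plants were grown to the 2-leaf stage before treatment with test chemical, then held in a greenhouse for twelve to sixteen days. Injury was visually rated against untreated controls on a 0–10 scale, where 0 is no effect and 10 is complete control.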

duck salad = test: Test B flood test duck salad; type: in vivo, Heteranthera limosa
Method in brief: as §2

bamyardgrass = test: Test B flood test barnyardgrass; type: in vivo, Echinochloa crus-galli
Method in brief: as §2

[1] = Postemergence, Rate 62 g/ha, scale 0 to 10, 0 is no effect, 10 is complete control
[2] = Postemergence, Rate 250 g/ha, scale 0 to 10, 0 no effect, 10 complete control
[3] = Preemergence, Rate 31 g/ha, visual rating, scale 0 to 10 (0 no effect, 10 complete control)
[4] = Preemergence, Rate 62 g/ha, scale 0 to 10, 0 is no effect, 10 is complete control
[5] = Preemergence, Rate 125 g/ha, scale 0 to 10 (0 no effect, 10 complete control)
[6] = Preemergence, Rate 250 g/ha, scale of 0 to 10 where 0 is no effect and 10 is complete control
[7] = Rate 31 g/ha, Postemergence, scale 0 to 10
[8] = Rate 125 g/ha, Postemergence, scale 0 to 10, 0 no effect, 10 complete control
[9] = Rate 125 g/ha, Postemergence section (flood test species), scale 0 to 10, 0 no effect, 10 complete control
[10] = Rate 500 g/ha, Postemergence section of Table B, 0 to 10 scale (0 no effect, 10 complete control)
[11] = flood test, listed under Postemergence, Rate 250 g/ha, scale 0 to 10, 0 no effect, 10 complete control

With COc1ccc(-n2c(=O)on(C(=O)N(c3ccc(F)cc3)C(C)C)c2=O)c(OC)c1 [Compound 33] the “Bedstraw plant response rating” value (bedstraw; [1]) was 0, the “Bedstraw plant response rating” value (bedstraw; [2]) was 2 and the “Bedstraw plant response rating” value (bedstraw; [3]) was 0. For the same compound, the “Plant response rating, Bedstraw” value (bedstraw; [4]) was 0, the “Plant response rating, Bedstraw” value (bedstraw; [5]) was 0 and the “Plant response rating, Bedstraw” value (bedstraw; [6]) was 0. The “Bedstraw plant response rating” value (bedstraw; [7]) was 0, the “Bedstraw plant response rating” value (bedstraw; [8]) was 1 and the “Blackgrass plant response rating” value (blackgrass; [1]) was 4. For the same compound, the “Blackgrass plant response rating” value (blackgrass; [2]) was 5, the “Blackgrass plant response rating” value (blackgrass; [3]) was 0 and the “Plant response rating, Blackgrass” value (blackgrass; [4]) was 0. The “Plant response rating, Blackgrass” value (blackgrass; [5]) was 0, the “Plant response rating, Blackgrass” value (blackgrass; [6]) was 0 and the “Blackgrass plant response rating” value (blackgrass; [7]) was 3. The “Blackgrass plant response rating” value (blackgrass; [8]) was 5, the “B. signalgrass plant response rating” value (surinam grass; [1]) was 0 and the “B. signalgrass plant response rating” value (surinam grass; [2]) was 1. For the same compound, the “B. signalgrass plant response rating” value (surinam grass; [3]) was 0, the “Plant response rating, B. signalgrass” value (surinam grass; [4]) was 0 and the “Plant response rating, B. signalgrass” value (surinam grass; [5]) was 0. For the same compound, the “Plant response rating, B. signalgrass” value (surinam grass; [6]) was 7, the “B. signalgrass plant response rating” value (surinam grass; [7]) was 0 and the “B. signalgrass plant response rating” value (surinam grass; [8]) was 0. For the same compound, the “Cocklebur plant response rating” value (cocklebur; [1]) was 0, the “Cocklebur plant response rating” value (cocklebur; [2]) was 6 and the “Cocklebur plant response rating” value (cocklebur; [3]) was 0. For the same compound, the “Plant response rating, Cocklebur” value (cocklebur; [4]) was 0, the “Plant response rating, Cocklebur” value (cocklebur; [5]) was 0 and the “Plant response rating, Cocklebur” value (cocklebur; [6]) was 0. For the same compound, the “Cocklebur plant response rating” value (cocklebur; [7]) was 0, the “Cocklebur plant response rating” value (cocklebur; [8]) was 0 and the “Crabgrass plant response rating” value (crabgrass; [1]) was 1. The “Crabgrass plant response rating” value (crabgrass; [2]) was 2, the “Crabgrass plant response rating” value (crabgrass; [3]) was 3 and the “Plant response rating, Crabgrass” value (crabgrass; [4]) was 3. For the same compound, the “Plant response rating, Crabgrass” value (crabgrass; [5]) was 3, the “Plant response rating, Crabgrass” value (crabgrass; [6]) was 7 and the “Crabgrass plant response rating” value (crabgrass; [7]) was 0. For the same compound, the “Crabgrass plant response rating” value (crabgrass; [8]) was 2, the “Giant foxtail plant response rating” value (giant foxtail; [1]) was 0 and the “Giant foxtail plant response rating” value (giant foxtail; [2]) was 3. For the same compound, the “Giant foxtail plant response rating” value (giant foxtail; [3]) was 3, the “Plant response rating, Giant foxtail” value (giant foxtail; [4]) was 4 and the “Plant response rating, Giant foxtail” value (giant foxtail; [5]) was 6. For the same compound, the “Plant response rating, Giant foxtail” value (giant foxtail; [6]) was 9, the “Giant foxtail plant response rating” value (giant foxtail; [7]) was 0 and the “Giant foxtail plant response rating” value (giant foxtail; [8]) was 1. For the same compound, the “Morningglory plant response rating” value (morningglory; [1]) was 3, the “Morningglory plant response rating” value (morningglory; [2]) was 9 and the “Morningglory plant response rating” value (morningglory; [3]) was 0. For the same compound, the “Plant response rating, Morningglory” value (morningglory; [4]) was 0, the “Plant response rating, Morningglory” value (morningglory; [5]) was 0 and the “Plant response rating, Morningglory” value (morningglory; [6]) was 1. The “Morningglory plant response rating” value (morningglory; [7]) was 3, the “Morningglory plant response rating” value (morningglory; [8]) was 8 and the “Redroot pigweed plant response rating” value (pigweed; [1]) was 0. For the same compound, the “Redroot pigweed plant response rating” value (pigweed; [2]) was 3, the “Redroot pigweed plant response rating” value (pigweed; [3]) was 0 and the “Plant response rating, Redroot pigweed” value (pigweed; [4]) was 0. For the same compound, the “Plant response rating, Redroot pigweed” value (pigweed; [5]) was 0, the “Plant response rating, Redroot pigweed” value (pigweed; [6]) was 0 and the “Redroot pigweed plant response rating” value (pigweed; [7]) was 0. The “Redroot pigweed plant response rating” value (pigweed; [8]) was 2, the “Sugarbeets plant response rating” value (sugar beet; [1]) was 0 and the “Sugarbeets plant response rating” value (sugar beet; [2]) was 6. For the same compound, the “Sugarbeets plant response rating” value (sugar beet; [3]) was 0, the “Plant response rating, Sugarbeets” value (sugar beet; [4]) was 0 and the “Plant response rating, Sugarbeets” value (sugar beet; [5]) was 0. The “Plant response rating, Sugarbeets” value (sugar beet; [6]) was 0, the “Sugarbeets plant response rating” value (sugar beet; [8]) was 2 and the “Velvetleaf plant response rating” value (velvetleaf; [1]) was 0. The “Velvetleaf plant response rating” value (velvetleaf; [2]) was 2, the “Velvetleaf plant response rating” value (velvetleaf; [3]) was 0 and the “Plant response rating, Velvetleaf” value (velvetleaf; [4]) was 0. For the same compound, the “Plant response rating, Velvetleaf” value (velvetleaf; [5]) was 0, the “Plant response rating, Velvetleaf” value (velvetleaf; [6]) was 0 and the “Velvetleaf plant response rating” value (velvetleaf; [8]) was 1. For the same compound, the “Wheat plant response rating” value (wheat; [1]) was 0, the “Wheat plant response rating” value (wheat; [2]) was 0 and the “Wheat plant response rating” value (wheat; [3]) was 0. For the same compound, the “Plant response rating, Wheat” value (wheat; [4]) was 0, the “Plant response rating, Wheat” value (wheat; [5]) was 0 and the “Plant response rating, Wheat” value (wheat; [6]) was 0. For the same compound, the “Wheat plant response rating” value (wheat; [8]) was 0, the “Wild oats plant response rating” value (wild oat; [1]) was 0 and the “Wild oats plant response rating” value (wild oat; [2]) was 1. For the same compound, the “Wild oats plant response rating” value (wild oat; [3]) was 0, the “Plant response rating, Wild oats” value (wild oat; [5]) was 2 and the “Plant response rating, Wild oats” value (wild oat; [6]) was 2. The “Wild oats plant response rating” value (wild oat; [8]) was 0, the “Nutsedge plant response rating” value (purple nutsedge; [1]) was 0 and the “Nutsedge plant response rating” value (purple nutsedge; [2]) was 0. The “Nutsedge plant response rating” value (purple nutsedge; [3]) was 0, the “Plant response rating, Nutsedge” value (purple nutsedge; [4]) was 0 and the “Plant response rating, Nutsedge” value (purple nutsedge; [5]) was 0. The “Plant response rating, Nutsedge” value (purple nutsedge; [6]) was 0, the “Nutsedge plant response rating” value (purple nutsedge; [7]) was 0 and the “Nutsedge plant response rating” value (purple nutsedge; [8]) was 0. For the same compound, the “Rice plant response rating” value (rice; [1]) was 0, the “Rice plant response rating” value (rice; [9]) was 0 and the “Rice plant response rating” value (rice; [10]) was 4. The “Rice plant response rating” value (rice; [11]) was 2, the “Ducksalad plant response rating” value (duck salad; [1]) was 0 and the “Ducksalad plant response rating” value (duck salad; [9]) was 0. The “Ducksalad plant response rating” value (duck salad; [10]) was 0, the “Ducksalad plant response rating” value (duck salad; [11]) was 0 and the “Barnyardgrass plant response rating” value (bamyardgrass; [1]) was 0. The “Barnyardgrass plant response rating” value (bamyardgrass; [9]) was 0, the “Barnyardgrass plant response rating” value (bamyardgrass; [10]) was 6 and the “Barnyardgrass plant response rating” value (bamyardgrass; [11]) was 3.
